Source: US20220324911A1, “THERAPEUTIC PEPTIDES” (COHBAR, INC., priority 2019, published 2022)
Non-standard residues stand in square brackets, D forms with d. No end group written: not given here.

How the values were obtained:
3T3-L1 adipocytes = assay: Free Fatty Acid Levels in 3T3-L1 Adipocytes; assay type: cell-based, mouse; conditions: for Free Fatty Acid Levels Expressed as a Percent Isoproterenol Control, Percent of Control Value: peptides at 25 μM, 20-22 hours then isoproterenol (1 nM) 3 hours
Experimental: Following 12-15 days' differentiation, test peptides were added to a final concentration of 25 μM and incubated for 20-22 hours in Adipocyte Maintenance Medium. After 20-22 hours, isoproterenol (1 nM) was added to all wells except untreated controls and test peptides were replenished. Cells were incubated for a further 3 hours in Assay Buffer (Zen-Bio). Free fatty acid concentrations in the media were determined using a Free Fatty Acid Assay Kit (Zen-Bio) according to the manufacturer's instructions using a plate reader (540 nm). Absorbance values were corrected for untreated background and expressed relative to isoproterenol treated cells. Treatment with isoproterenol (1 nM) alone was used as the free fatty acid level stimulatory control. The relative standard deviation of the isoproterenol control was <10%. […] Free fatty acid levels for insulin (100 nM) treatment were <5% of the isoproterenol control value.

MDA-MB-231 cells [1] = assay: Caspase 3/7 Activity in MDA-MB-231 Cells (Caspase-Glo 3/7); assay type: cell-based, human; conditions: peptides at 10 μM, 18 hours, relative to DMSO control
Experimental: The effect of the peptides on cell death/survival can be assessed using a caspase-3 assay. Peptides were dissolved with DMSO at 10 mM stock. […] Staurosporine (Selleckchem) was dissolved with DMSO at 1 mM stock. Caspase-Glo 3/7 Assay Reagent was purchased from Promega (Madison, Wis.). MDA-MB-231 human breast cancer cell line was purchased from American Type Culture Collection (Manassas, Va.). MDA-MB-231 cells were grown in DMEM Medium supplemented with 10% FBS. 100 μg/ml penicillin and 100 μg/ml streptomycin were added to the culture medium. Cultures were maintained at 37° C. in a humidified atmosphere of 5% C02 and 95% air. MDA-MB-231 cells were incubated with test peptides in duplicate at 10 μM at 37° C. in a humidified atmosphere of 5% C02 and 95% air for 18 hours. 25 μl of Caspase-Glo 3/7 Assay Reagent was added to each well and incubated at 37° C., 5% C02 for 1 hour. Luminescence for each sample well on the plate was measured by Envision 2104 Multilabel Reader (PerkinElmer, Santa Clara, Calif.). Activity was calculated relative to DMSO control.

MCF-7 cells = conditions: human, 72 h, 10 µM
Experimental: Peptides and reference compound staurosporine (Selleckchem) were dissolved with DMSO at 10 mM stock. CellTiter 96® AQueous One Solution Reagent (MTS assay reagent) was purchased from Promega (Madison, Wis.). MCF-7 human breast cancer cell line was purchased from American Type Culture Collection (Manassas, Va.). MCF-7 cells were grown in EMEM Medium supplemented with 10% FBS and 0.01 mg/ml human recombinant insulin. 100 μg/ml penicillin and 100 μg/ml streptomycin were added to the culture medium. Cells were incubated with test peptides at 10 μM at 37° C. in a humidified atmosphere of 5% C02 and 95% air for 72 hours. 5 μl of CellTiter 96® AQueous One Solution Reagent (MTS assay reagent) was added to each well and incubated at 37° C., 5% C02 for 5 hours. Absorbance at 492 nm was recorded by Envision 2104 Multilabel Reader. Treatment with DMSO alone was used as the cell viability activity control.

MDA-MB-231 cells [2] = assay: MTS Assay in MDA-MB-231 Cells (cell viability); assay type: cell-based; conditions: human, 72 h
Experimental: Test compounds and reference compound staurosporine (Selleckchem) were all dissolved with DMSO at 10 mM stock. […] Activity was calculated relative to DMSO control. […] Cell viability was 3% of the DMSO control value for Staurosporine (10 uM).

| Substance | Free Fatty Acid Levels Expressed as a Percent Isoproterenol Control, Percent of Control Value (3T3-L1 adipocytes) | further results |
| --- | --- | --- |
| 3 (SLLIQCQSGHLR) [compound 3] | 136% |  |
| 4 (LLIQCQSGHLR) [compound 4] | 141% |  |
| 5 ([dA]LIQCQSGHLR) [compound 5] | 159% |  |
| 8 (TCWLIVDIGLLIVSSVF) [compound 8] | 129% |  |
| 9 ([dA]TCWLIVDIGLLIVSSVF) [compound 9] | 125% |  |
| 10 ([dA]TCWLIVDIGLLIVSS[dA]F) [compound 10] | 138% |  |
| 13 (TGWARGLISTGRV) [compound 13] | 87% |  |
| 14 (TGWARGLISTGR; not fully specified) [compound 14] | 102% |  |
| 15 (TGW[dA]RGLISTGR) [compound 15] | 102% |  |
| 18 (QTVPNKPTGPKLPNLH) [compound 18] | 109% |  |
| 19 (QTVPNKPT[dA]PKLPNLH) [compound 19] | 89% |  |
| 20 (QTVPNKPT[dA]PKLPN[dA]) [compound 20] | 108% |  |
| MQTVPNKPTGPKLPNLH [compound 17] | 112% | Caspase 3/7 Activity, Percent of Control Activity (MDA-MB-231 cells [1]): 65%; MTS Assay cell viability, Percent of Control Activity (MCF-7 cells): 68%; MTS Assay cell viability, Percent of Control Activity (MDA-MB-231 cells [2]): 85% |
| MSLLIQCQSGHLR [compound 2] | 162% | Caspase 3/7 Activity, Percent of Control Activity (MDA-MB-231 cells [1]): 92%; MTS Assay cell viability, Percent of Control Activity (MCF-7 cells): 59%; MTS Assay cell viability, Percent of Control Activity (MDA-MB-231 cells [2]): 90% |
| MTCWLIVDIGLLIVSSVF [compound 7] | 160% | Caspase 3/7 Activity, Percent of Control Activity (MDA-MB-231 cells [1]): 56%; MTS Assay cell viability, Percent of Control Activity (MCF-7 cells): 52%; MTS Assay cell viability, Percent of Control Activity (MDA-MB-231 cells [2]): 88% |
| MTGWARGLISTGRV [compound 12] | 107% | Caspase 3/7 Activity, Percent of Control Activity (MDA-MB-231 cells [1]): 73%; MTS Assay cell viability, Percent of Control Activity (MCF-7 cells): 62%; MTS Assay cell viability, Percent of Control Activity (MDA-MB-231 cells [2]): 89% |
| insulin [reference compound] |  | Free fatty acid levels, % of the isoproterenol control value (3T3-L1 adipocytes; insulin 100 nM): < 5% |
